Counter-ions that a name gives are not always drawn. Like-named read-outs stand apart in the source and are kept apart here. Bridge positions count the residues as written; N and C are the ends. Ends that are not written are not given here.
Columns and labels:
[1] = system: SARS-CoV-2 B.1 D614G; settings: read-out: anti-viral IC50 (±SEM), SARS-CoV-2 B.1
[2] = system: lentiviral pseudoparticles harboring the SARS-CoV-2 Hu-1 spike; test: microbe, parasite or virus in culture; settings: Severe acute respiratory syndrome coronavirus 2, Caco-2, 48 h, read-out: IC50, SARS-CoV-2 spike-driven pseudoparticle entry, Caco-2 cells, Hu-1 spike, luciferase 48 h after transduction
[3] = system: lentiviral pseudoparticles harboring the SARS-CoV-2 Hu-1 spike
[4] = read-out: IC50, SARS-CoV-2 spike-driven pseudoparticle entry, Caco-2 cells, luciferase 48 h after transduction

CN(C)C(=O)COC(=O)Cc1ccc(OC(=O)c2ccc(NC(=N)N)cc2)cc1 [Camostat mesylate]
IC50 [1]: 4.1 ± 2 nM
IC50 [2]: 93.8 ± 6 nM

CC(=O)NCC(=O)N[C@@H](CCC(N)=O)C(=O)N[C@@H](Cc1ccccc1)C(=O)N[C@@H](CCCN=C(N)N)C(=O)c1nc2ccccc2s1 [MM3122, reference compound]
IC50 [3, 4]: 31.2 ± 3 nM

N=C(N)c1ccc2cc(OC(=O)c3ccc(N=C(N)N)cc3)ccc2c1 [Nafamostat mesylate]
IC50 [2]: 14.4 ± 1 nM

CNLPIVRGPCRAFIQLWAFDAVKGKCVLFPYGGCQGNGNKFYSEKECREYC (disulfide 1-51, 10-34, 26-47) [Bikunin KD 2]
IC50 [3, 4]: 170 ± 20 nM

Antitrypsin
IC50 ([3]; read-out: IC50, SARS-CoV-2 spike-driven pseudoparticle entry, Caco-2 cells, luciferase 48 h after transduction, listed as α‐1‐antitrypsin): 27400 ± 4100 nM

Aprotinin
IC50 [3, 4]: 427 ± 30 nM

B1: Bikunin (protein, UniProt P02760 206-352, looked up)
Inter-alpha-trypsin inhibitor …: AVLPQEEEGSGGGQLVTEVTKKEDSCQLGYSAGPCMGMTSRYFYNGTSMACETFQYGGCMGNGNNFVTEKECLQTCRTVAACNLPIVRGPCRAFIQLWAFDAVKGKCVLFPYGGCQGNGNKFYSEKECREYCGVPGDGDEELLRFSN
modifications: Inter-alpha-trypsin inhibitor light chain
IC50 [3, 4]: 6100 ± 1200 nM
